{"source": "patent US20070043121A1", "about": "(priority 2003, published 2007)", "origin": "cited, not measured here", "key": {"[1]": {"system": "sodium channel (3H-batrachotoxin)"}, "[2]": {"conditions": "water"}}, "note": "pIC50: −log10 of the molar value."}
{"smiles": "CC(C)c1cccc(C(C)C)c1O", "note": "[Propofal, 2,6-diisopropylphenol]", "values": [{"measurement": "pIC50", "setting": "[1]", "value": 4.59}, {"measurement": "aqueous solubility", "setting": "[2]", "value": "very water insoluble"}]}
